# Experiments:
# HN5 xenografts = HN5 xenografts in nude mice; cited from earlier work
# A431 xenografts = A431 xenografts in nude mice; cited from earlier work
# cell cycle = details: cited from earlier work
# [1] = with paclitaxel, cisplatin, gemcitabine, and doxorubicin; cited from earlier work
# [2] = system: H1975 tumor cell line (EGFR T790M in combination with L858R); assay: sensitivity of H1975 tumor cell line to treatment
smiles,measurement,setting,value
C#Cc1cccc(Nc2ncnc3cc(OCCOC)c(OCCOC)cc23)c1 [erlotinib],growth inhibition of xenografts,HN5 xenografts,marked growth inhibition
same,growth inhibition of xenografts,A431 xenografts,marked growth inhibition
same,cell cycle effect,cell cycle,cell cycle arrest at G1
same,interaction with chemotherapy agents,[1],additive interaction
same,response of tumor cell line to treatment,[2],resistance

# Reference: US20150197814A1, “EGFR AND KRAS MUTATIONS” (Genentech, Inc., priority 2005, published 2015)
